Test results taken from US11524966B1 (Valo Early Discovery, Inc., priority 2017, dated 2022).

What follows are compounds tested against T1, USP25 (USP25-His6, Boston Biochem E-546) (Homo sapiens, UniProt Q9UHP3) (assay: Ubiquitin-Rhodamine 110 Assay for USP25 Activity, Example A-2). Conditions: Ubiquitin-Rhodamine 110 assay, Example A-2; read-out: USP25 A-2 IC50 range.
T1 construct: His6; purchased Boston Biochem E-546
T1 sequence (Q9UHP3 1-1055): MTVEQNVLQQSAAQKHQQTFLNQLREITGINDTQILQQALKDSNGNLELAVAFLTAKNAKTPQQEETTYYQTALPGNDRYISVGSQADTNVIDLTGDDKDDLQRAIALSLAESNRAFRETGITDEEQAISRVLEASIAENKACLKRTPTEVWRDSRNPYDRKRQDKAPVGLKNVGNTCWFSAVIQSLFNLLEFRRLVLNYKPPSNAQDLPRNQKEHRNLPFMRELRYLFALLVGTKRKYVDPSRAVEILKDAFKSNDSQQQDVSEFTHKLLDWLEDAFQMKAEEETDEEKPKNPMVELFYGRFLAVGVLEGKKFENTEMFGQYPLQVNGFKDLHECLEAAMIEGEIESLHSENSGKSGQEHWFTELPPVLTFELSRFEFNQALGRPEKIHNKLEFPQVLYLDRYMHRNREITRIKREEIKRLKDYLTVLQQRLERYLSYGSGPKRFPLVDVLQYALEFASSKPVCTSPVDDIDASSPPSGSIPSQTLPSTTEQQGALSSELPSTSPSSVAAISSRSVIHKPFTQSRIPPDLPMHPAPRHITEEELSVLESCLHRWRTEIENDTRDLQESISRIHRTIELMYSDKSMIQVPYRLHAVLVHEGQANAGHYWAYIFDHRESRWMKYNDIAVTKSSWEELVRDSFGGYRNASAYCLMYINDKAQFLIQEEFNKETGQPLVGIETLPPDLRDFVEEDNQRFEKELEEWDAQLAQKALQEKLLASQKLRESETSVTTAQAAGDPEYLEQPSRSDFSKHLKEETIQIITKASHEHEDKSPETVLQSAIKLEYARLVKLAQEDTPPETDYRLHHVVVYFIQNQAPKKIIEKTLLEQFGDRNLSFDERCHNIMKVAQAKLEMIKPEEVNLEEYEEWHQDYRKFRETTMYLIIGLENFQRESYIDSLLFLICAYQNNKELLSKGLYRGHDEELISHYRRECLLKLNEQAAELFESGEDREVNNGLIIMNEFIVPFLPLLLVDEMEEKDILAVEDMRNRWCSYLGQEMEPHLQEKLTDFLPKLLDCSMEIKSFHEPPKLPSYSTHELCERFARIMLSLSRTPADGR
Format: biochemical
Procedure, shortened: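 Fluorescence (ex 485, em 535 nm) of cleaved ubiquitin-rhodamine 110 (25 nM, below Km) gave IC50 via 4-parameter logistic fit. Reaction: 45 min, room temperature, citric acid stop, after 30 min compound preincubation with 75 pM USP25-His6 in 20 mM Tris pH 8.0, 3 mM BME, 0.03% BGG, 0.01% Triton X-100; top dose 25 μM.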

Row | SMILES | IC50
1 | Cc1ccc2c(N)c(C(=O)N[C@H]3COc4c(F)c(N5CCNCC5)cc(F)c4C3)oc2n1 [Example 68, (R)-3-amino-N-(5,8-difluoro-7-(piperazin-1-yl)chroman-3-yl)-6-methylfuro[2,3-b]pyridine-2-carboxamide] | > 2 µM
2 | Cc1ccc2c(N)c(C(=O)N[C@H]3COc4cc([C@H]5CCNCC5(F)F)ccc4C3)sc2n1 [Example 69, 3-amino-N-((R)-7-((R)-3,3-difluoropiperidin-4-yl)chroman-3-yl)-6-methylthieno[2,3-b]pyridine-2-carboxamide] | 0.05 to 0.2 µM
3 | Cc1ccc2c(N)c(C(=O)N[C@H]3COc4cc([C@@H]5CCNCC5(F)F)ccc4C3)sc2n1 [Example 70, 3-amino-N-((R)-7-((S)-3,3-difluoropiperidin-4-yl)chroman-3-yl)-6-methylthieno[2,3-b]pyridine-2-carboxamide] | 0.001 to 0.05 µM
4 | Cc1cnc2c(N)c(C(=O)N[C@H]3COc4cc(N5CCNCC5)ncc4C3)sc2n1 [Example 71, (R)-7-amino-3-methyl-N-(7-(piperazin-1-yl)-3,4-dihydro-2H-pyrano[3,2-c]pyridin-3-yl)thieno[2,3-b]pyrazine-6-carboxamide] | 0.2 to 2 µM
5 | Cc1nc2sc(C(=O)N[C@H]3COc4cc(N5CCNCC5)ncc4C3)c(N)c2cc1F [Example 72, (R)-3-amino-5-fluoro-6-methyl-N-(7-(piperazin-1-yl)-3,4-dihydro-2H-pyrano[3,2-c]pyridin-3-yl)thieno[2,3-b]pyridine-2-carboxamide] | 0.2 to 2 µM
6 | C[C@@H]1CCc2cc(C(=O)N[C@H]3COc4cc(N5CC6CCC(C5)N6)ccc4C3)cnc2N1 [Example 74, (7R)-N-((3R)-7-(3,8-diazabicyclo[3.2.1]octan-3-yl)chroman-3-yl)-7-methyl-5,6,7,8-tetrahydro-1,8-naphthyridine-3-carboxamide] | 0.2 to 2 µM
7 | Cc1ccc2c(N)c(C(=O)N[C@H]3COc4cc(N5C[C@@H]6CC[C@H]5CN6)ncc4C3)sc2n1 [Example 75, N-((R)-7-((1S, 4S)-2 5-diazabicyclo[2.2.2]octan-2-yl)-3,4-dihydro-2H-pyrano[3,2-c]pyridin-3-yl)-3-amino-6-methylthieno[2,3-b]pyridine-2-carboxamide] | 0.001 to 0.05 µM
8 | Cc1ccc2c(N)c(C(=O)N[C@H]3COc4cc(N5C[C@H]6CC[C@@H]5CN6)ncc4C3)sc2n1 [Example 76, N-((R)-7-((1 R,4R)-2,5-diazabicyclo[2.2.2]octan-2-yl)-3,4-dihydro-2H-pyrano[3,2-c]pyridin-3-yl)-3-amino-6-methylthieno[2,3-b]pyridine-2-carboxamide] | 0.05 to 0.2 µM
9 | Cc1cnc2c(N)c(C(=O)N[C@H]3COc4c(C#N)c(N5CC6CC(C5)N6)cc(F)c4C3)sc2n1 [Example 77, N-((3R)-7-(3,6-diazabicyclo[3.1.1]heptan-3-yl)-8-cyano-5-fluorochroman-3-yl)-7-amino-3-methylthieno[2,3-b]pyrazine-6-carboxamide] | 0.2 to 2 µM
10 | Cc1ccc2c(N)c(C(=O)N[C@H]3COc4c(F)c(N5CC6CNCC(C5)O6)cc(F)c4C3)sc2n1 [Example 78, N-((3R)-7-(9-oxa-3,7-diazabicyclo[3.3.1]nonan-3-yl)-5,8-difluorochroman-3-yl)-3-amino-6-methylthieno[2,3-b]pyridine-2-carboxamide] | 0.001 to 0.05 µM
11 | Cc1ccc2c(N)c(C(=O)N[C@H]3COc4cc(N5CC6CNCC(C5)O6)c(F)c(F)c4C3)sc2n1 [Example 79, N-((3R)-7-(9-oxa-3,7-diazabicyclo[3.3.1]nonan-3-yl)-5,6-difluorochroman-3-yl)-3-amino-6-methylthieno[2,3-b]pyridine-2-carboxamide] | 0.001 to 0.05 µM
12 | Cc1ccc2c(N)c(C(=O)N[C@H]3COc4cc([C@H]5CCNC[C@@H]5F)ccc4C3)sc2n1 [Example 80, 3-amino-N-((R)-7-((3R,4R)-3-fluoropiperidin-4-yl)chroman-3-yl)-6-methylthieno[2,3-b]pyridine-2-carboxamide] | 0.05 to 0.2 µM
13 | Cc1ccc2c(N)c(C(=O)N[C@H]3COc4cc([C@@H]5CCNC[C@H]5F)ccc4C3)sc2n1 [Example 81, 3-amino-N-((R)-7-((3S,4S)-3-fluoropiperidin-4-yl)chroman-3-yl)-6-methylthieno[2,3-b]pyridine-2-carboxamide] | 0.05 to 0.2 µM
14 | Cc1ccc2c(N)c(C(=O)N[C@H]3COc4cc([C@H]5CCNC[C@H]5F)ccc4C3)sc2n1 [Example 82, 3-amino-N-((R)-7-((3S,4R)-3-fluoropiperidin-4-yl)chroman-3-yl)-6-methylthieno[2,3-b]pyridine-2-carboxamide] | 0.001 to 0.05 µM
15 | Cc1ccc2c(N)c(C(=O)N[C@H]3COc4cc([C@@H]5CCNC[C@@H]5F)ccc4C3)sc2n1 [Example 83, 3-amino-N-((R)-7-((3R,4S)-3-fluoropiperidin-4-yl)chroman-3-yl)-6-methylthieno[2,3-b]pyridine-2-carboxamide] | 0.05 to 0.2 µM
16 | CCn1ccc2cc(C(=O)N[C@H]3COc4c(F)c([C@@H]5CCNC[C@@H]5O)cc(F)c4C3)nnc21 [Example 84, N-((R)-5,8-difluoro-7-((3R,4S)-3-hydroxypiperidin-4-yl)chroman-3-yl)-7-ethyl-7H-pyrrolo[2,3-c]pyridazine-3-carboxamide] | > 2 µM
17 | CCn1ccc2cc(C(=O)N[C@H]3COc4c(F)c([C@H]5CCNC[C@H]5O)cc(F)c4C3)nnc21 [Example 85, N-((R)-5,8-difluoro-7-((3S,4R)-3-hydroxypiperidin-4-yl)chroman-3-yl)-7-ethyl-7H-pyrrolo[2,3-c]pyridazine-3-carboxamide] | > 2 µM
18 | CO[C@@H]1CN(c2cc(F)c3c(c2F)OC[C@H](NC(=O)c2sc4nc(C)ccc4c2N)C3)C[C@H]1N [Example 86] | 0.2 to 2 µM
19 | CO[C@H]1CN(c2cc(F)c3c(c2F)OC[C@H](NC(=O)c2sc4nc(C)ccc4c2N)C3)C[C@@H]1N [Example 87, 3-amino-N-((R)-7-((3S,4S)-3-amino-4-methoxypyrrolidin-1-yl)-5,8-difluorochroman-3-yl)-6-methylthieno[2,3-b]pyridine-2-carboxamide] | 0.2 to 2 µM
20 | Cc1cc(C(F)F)c2c(N)c(C(=O)N[C@H]3COc4cc(N5CC6CNCC(C5)O6)ccc4C3)sc2n1 [Example 88, N-((3R)-7-(9-oxa-3,7-diazabicyclo[3.3.1]nonan-3-yl)chroman-3-yl)-3-amino-4-(difluoromethyl)-6-methylthieno[2,3-b]pyridine-2-carboxamide] | 0.001 to 0.05 µM
21 | O=C(N[C@H]1COc2c(F)c(N3CC4CCC(C3)N4)cc(F)c2C1)c1cnc2c(c1)[C@@H]1C[C@@H]1CN2 [Example 89, (1aS, 7bR)-N-((3R)-7-(3 8-diazabicyclo[3.2.1]octan-3-yl)-5,8-difluorochroman-3-yl)-1a,2,3,7b-tetrahydro-1H-cyclopropa[c][1,8]naphthyridine-6-carboxamide] | 0.05 to 0.2 µM
22 | O=C(N[C@H]1COc2c(F)c(N3CC4CCC(C3)N4)cc(F)c2C1)c1cnc2c(c1)[C@H]1C[C@H]1CN2 [Example 90, (1aR,7bS)-N-((3R)-7-(3,8-diazabicyclo[3.2.1]octan-3-yl)-5,8-difluorochroman-3-yl)-1a,2,3,7b-tetrahydro-1H-cyclopropa[c][1,8]naphthyridine-6-carboxamide] | 0.2 to 2 µM
23 | CO[C@@H]1CN(c2ccc3c(c2F)OC[C@H](NC(=O)c2sc4nc(C)ccc4c2N)C3)C[C@H]1N [Example 91, 3-amino-N-[(3R )-7-[(3R,4R)-3-amino-4-methoxypyrrolidin-1-yl]-8-fluoro-3,4-dihydro-2H-1-benzopyran-3-yl]-6-methylthieno[2,3-b]pyridine-2-carboxamide] | 0.2 to 2 µM
24 | CO[C@H]1CN(c2ccc3c(c2F)OC[C@H](NC(=O)c2sc4nc(C)ccc4c2N)C3)C[C@@H]1N [Example 92, 3-amino-N-[(3R)-7-[(3S,4S)-3-amino-4-methoxypyrrolidin-1-yl]-8-fluoro-3,4-dihydro-2H-1-benzopyran-3-yl]-6-methylthieno[2,3-b]pyridine-2-carboxamide] | 0.2 to 2 µM
25 | CO[C@@H]1CN(c2cc3c(cc2F)C[C@@H](NC(=O)c2sc4nc(C)ccc4c2N)CO3)C[C@H]1N [Example 93, 3-amino-N-[(3R)-7-[(3R,4R)-3-amino-4-methoxypyrrolidin-1-yl]-6-fluoro-3,4-dihydro-2H-1-benzopyran-3-yl]-6-methylthieno[2,3-b]pyridine-2-carboxamide] | 0.2 to 2 µM
